Experimental data published in patent US9695171B2, “3,4-disubstituted-1 H-pyrrolo[2,3-b]pyridines and 4,5-disubstituted-7H-pyrrolo[2,3-c]pyridazines as LRRK2 inhibitors” (Pfizer Inc., priority 2013, dated 2017).

target: T1, GST-tagged truncated LRRK2 (Homo sapiens, UniProt Q5S007); test: LRRK2 kinase assay (Lantha Screen); format: biochemical; conditions: 1 mM ATP (head); a = geometric mean of >=4 determinations, b = single determination; read-out: LRRK2 LANTHA EC50 at 1 mM ATP; Geometric mean of 2-3 determinations unless otherwise indicated
T1 construct: GST-tagged truncated LRRK2 from Invitrogen (Cat # PV4874); GST; purchased Invitrogen PV4874
Procedure: LRRK2 kinase activity was measured using Lantha Screen technology from Invitrogen. GST-tagged truncated LRRK2 from Invitrogen (Cat # PV4874) was incubated with a fluorescein-labeled peptide substrate based upon ezrin/radixin/moesin (ERM), also known as LRRKtide (Invitrogen cat # PR8976A), in the presence of a dose response of compound. Upon completion, the assay was stopped and detected with a terbium labeled anti-phospho-ERM antibody (Invitrogen, cat # PR8975A). […] The compound dose response was prepared by diluting compound to a top concentration of 3.16 mM in 100% DMSO and serial diluted by half-log in DMSO 11 times. Aliquots (3.5 μL) of the 100% DMSO dose response were mixed with 46.5 μL water then 1 μL of this mixture was added to the 3 μL substrate mix in the 384-well plate. The kinase reaction was started with 3 μL of a working solution of LRRK2 enzyme at a concentration of 4 μg/mL. […] The reaction was allowed to progress at room temperature for two hours and then stopped with the addition of 7 μL of detection buffer (20 mM Tris pH 7.6, 0.01% NP-40, 0.02% NaN3, 6 mM EDTA with 2 nM terbium labeled anti-phospho-ERM). After an incubation of 1 hour at room temperature, the plate was read on an Envision with an excitation wavelength of 340 nm and a reading emission at both 520 nm and 495 nm. The ratio of the 520 nm and 495 nm emission was used to analyze the data.

T1 sequence (Q5S007 970-2527 limits assumed): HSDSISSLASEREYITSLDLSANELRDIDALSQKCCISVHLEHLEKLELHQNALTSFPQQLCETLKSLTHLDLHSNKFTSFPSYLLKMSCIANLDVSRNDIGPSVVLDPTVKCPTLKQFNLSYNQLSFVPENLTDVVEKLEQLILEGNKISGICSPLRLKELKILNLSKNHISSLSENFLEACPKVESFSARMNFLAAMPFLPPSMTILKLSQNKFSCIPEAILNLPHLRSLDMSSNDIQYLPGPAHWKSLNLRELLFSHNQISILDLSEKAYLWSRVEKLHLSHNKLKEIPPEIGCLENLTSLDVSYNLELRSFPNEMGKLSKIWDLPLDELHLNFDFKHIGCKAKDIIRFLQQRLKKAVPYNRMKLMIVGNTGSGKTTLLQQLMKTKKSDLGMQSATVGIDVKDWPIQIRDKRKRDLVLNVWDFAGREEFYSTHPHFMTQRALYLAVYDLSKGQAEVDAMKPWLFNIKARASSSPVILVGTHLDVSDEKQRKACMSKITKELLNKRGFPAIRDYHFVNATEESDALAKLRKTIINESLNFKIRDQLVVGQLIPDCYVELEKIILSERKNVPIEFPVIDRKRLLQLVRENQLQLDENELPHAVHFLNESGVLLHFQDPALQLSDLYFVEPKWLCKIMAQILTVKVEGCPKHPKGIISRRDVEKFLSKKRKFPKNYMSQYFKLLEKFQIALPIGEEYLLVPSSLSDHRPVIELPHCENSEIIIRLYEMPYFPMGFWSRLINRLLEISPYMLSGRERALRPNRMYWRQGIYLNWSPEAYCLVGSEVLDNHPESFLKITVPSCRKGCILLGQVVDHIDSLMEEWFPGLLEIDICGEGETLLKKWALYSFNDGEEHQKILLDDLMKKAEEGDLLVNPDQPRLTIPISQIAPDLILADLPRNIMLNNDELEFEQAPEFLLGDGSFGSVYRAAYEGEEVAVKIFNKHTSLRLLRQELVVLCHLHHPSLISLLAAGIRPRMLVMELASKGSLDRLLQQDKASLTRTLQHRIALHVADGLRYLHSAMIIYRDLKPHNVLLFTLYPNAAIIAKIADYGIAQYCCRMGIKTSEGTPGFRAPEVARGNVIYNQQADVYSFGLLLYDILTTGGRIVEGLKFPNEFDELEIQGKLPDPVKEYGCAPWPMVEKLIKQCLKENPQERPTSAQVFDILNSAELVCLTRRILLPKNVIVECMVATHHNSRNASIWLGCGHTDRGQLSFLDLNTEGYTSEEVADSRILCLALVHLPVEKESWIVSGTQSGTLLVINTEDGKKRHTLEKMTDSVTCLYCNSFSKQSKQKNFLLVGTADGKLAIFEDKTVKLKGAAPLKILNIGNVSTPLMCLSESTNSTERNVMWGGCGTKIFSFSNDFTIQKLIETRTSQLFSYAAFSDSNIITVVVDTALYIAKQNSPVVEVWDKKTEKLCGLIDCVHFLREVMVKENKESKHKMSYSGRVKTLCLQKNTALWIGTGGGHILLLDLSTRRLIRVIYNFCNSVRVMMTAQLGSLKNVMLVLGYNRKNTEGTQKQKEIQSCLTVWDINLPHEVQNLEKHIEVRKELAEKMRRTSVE

| Compound | EC50 [nM] |
| --- | --- |
| COc1ccc(F)c(F)c1-c1c[nH]c2nccc(N3CCOCC3)c12 [Example 40, 3-(2,3-difluoro-6-methoxyphenyl)-4-(morpholin-4-yl)-1H-pyrrolo[2,3-b]pyridine] | 105 |
| N#Cc1cc(CO)cc(-c2c[nH]c3nccc(N4CCOCC4)c23)c1 [Example 49, 3-(hydroxymethyl)-5-[4-(morpholin-4-yl)-1H-pyrrolo[2,3-b]pyridin-3-yl]benzonitrile] | 50.8 |
| Fc1ccc(-c2c[nH]c3nccc(N4CCOCC4)c23)cc1 [Example 50, 3-(4-fluorophenyl)-4-(morpholin-4-yl)-1H-pyrrolo[2,3-b]pyridine] | 191 |
| Fc1cc(Cl)cc(-c2c[nH]c3nccc(N4CCOCC4)c23)c1 [Example 21, 3-(3-chloro-5-fluorophenyl)-4-(morpholin-4-yl)-1H-pyrrolo[2,3-b]pyridine] | 51.5 |
| Cc1cc(N2CCOCC2)c2c(-c3cccc(C#N)c3F)c[nH]c2n1 [Example 18, 2-fluoro-3-[6-methyl-4-(morpholin-4-yl)-1H-pyrrolo[2,3-b]pyridin-3-yl]benzonitrile] | 95.4 |
| Clc1ccccc1-c1c[nH]c2nccc(N3CCOCC3)c12 [Example 23, 3-(2-chlorophenyl)-4-(morpholin-4-yl)-1H-pyrrolo[2,3-b]pyridine] | 143 |
| Cn1cc(-c2c[nH]c3nccc(N4CCCC(O)C4)c23)cn1 (centres unmarked) [Example 57, 1-[3-(1-methyl-1H-pyrazol-4-yl)-1H-pyrrolo[2,3-b]pyridin-4-yl]piperidin-3-ol] | 91.9 |
| Cc1[nH]c2nccc(N3CCOCC3)c2c1-c1cccc(C#N)c1 [Example 8, 3-[2-Methyl-4-(morpholin-4-yl)-1H-pyrrolo[2,3-b]pyridin-3-yl]benzonitrile] | 22.1 |
| Clc1cccc(-c2c[nH]c3nccc(N4CCOCC4)c23)c1 [Example 20, 3-(3-chlorophenyl)-4-(morpholin-4-yl)-1H-pyrrolo[2,3-b]pyridine] | 53.7 |
| N#Cc1ccc(F)c(-c2c[nH]c3nccc(N4CCOCC4)c23)c1 [Example 47, 4-fluoro-3-[4-(morpholin-4-yl)-1H-pyrrolo[2,3-b]pyridin-3-yl]benzonitrile] | 144 |
| N#Cc1cccc(-c2c[nH]c3nccc(N4CCOCC4)c23)c1 [Example 1, 3-[4-(Morpholin-4-yl)-1H-pyrrolo[2,3-b]pyridin-3-yl]benzonitrile] | 4.28 |
| Fc1ccc(-c2c[nH]c3nccc(N4CCOCC4)c23)c(F)c1 [Example 37, 3-(2,4-difluorophenyl)-4-(morpholin-4-yl)-1H-pyrrolo[2,3-b]pyridine] | 147 |
| COc1cncc(-c2c[nH]c3nccc(N4CCOCC4)c23)c1 [Example 42, 3-(5-methoxypyridin-3-yl)-4-(morpholin-4-yl)-1H-pyrrolo[2,3-b]pyridine] | 240 |
| Fc1cccc(-c2c[nH]c3nccc(N4CCOCC4)c23)c1F [Example 24, 3-(2,3-difluorophenyl)-4-(morpholin-4-yl)-1H-pyrrolo[2,3-b]pyridine] | 16.8 |
| Cc1cc(N2CCOCC2)c2c(-c3cccc(C#N)c3)c[nH]c2n1 [Example 9, 3-[6-Methyl-4-(morpholin-4-yl)-1H-pyrrolo[2,3-b]pyridin-3-yl]benzonitrile] | 208 |
| N#Cc1ccc(-c2c[nH]c3nccc(N4CCOCC4)c23)c(F)c1 [Example 48, 3-fluoro-4-[4-(morpholin-4-yl)-1H-pyrrolo[2,3-b]pyridin-3-yl]benzonitrile] | 217 |

Further lines, results first:

| EC50 [nM] | Compound |
| --- | --- |
| 195 | Cn1cc(-c2c[nH]c3nccc(N4CCC(F)(F)C4)c23)cn1 [Example 64, 4-(3,3-difluoropyrrolidin-1-yl)-3-(1-methyl-1H-pyrazol-4-yl)-1H-pyrrolo[2,3-b]pyridine] |
| 221 | Cn1cc(-c2c[nH]c3nccc(N4C[C@H]5CC[C@@H](C4)O5)c23)cn1 [Example 61, 3-(1-methyl-1H-pyrazol-4-yl)-4-(8-oxa-3-azabicyclo[3.2.1]oct-3-yl)-1H-pyrrolo[2,3-b]pyridine] |
| 39 | N#Cc1cccc(-c2c[nH]c3nccc(N4CCC(F)CC4)c23)c1 [Example 74, 3-[4-(4-fluoropiperidin-1-yl)-1H-pyrrolo[2,3-b]pyridin-3-yl]benzonitrile] |
| 10.5 | C[C@H]1CN(c2ccnc3[nH]cc(-c4cccc(C#N)c4)c23)CCO1 [Example 80, 3-{4-[(2S)-2-methylmorpholin-4-yl]-1H-pyrrolo[2,3-b]pyridin-3-yl}benzonitrile] |
| 2.75 | N#Cc1cc(-c2c[nH]c3nccc(N4CCOCC4)c23)c[nH]1 [Example 86, 4-[4-(morpholin-4-yl)-1H-pyrrolo[2,3-b]pyridin-3-yl]-1H-pyrrole-2-carbonitrile] |
| 106 | N#CCc1cnc2[nH]cc(-c3cccc(C#N)c3)c2c1N1CCOCC1 [Example 83, 3-[5-(cyanomethyl)-4-(morpholin-4-yl)-1H-pyrrolo[2,3-b]pyridin-3-yl]benzonitrile] |
| 9.93 | N#Cc1cccc(-c2c[nH]c3nccc(-c4ccncc4)c23)c1 [Example 88, 3-[4-(pyridin-4-yl)-1H-pyrrolo[2,3-b]pyridin-3-yl]benzonitrile] |
| 24.3 | N#Cc1cccc(-c2c[nH]c3nccc(N4CCCC(O)C4)c23)c1 (centres unmarked) [Example 66, 3-[4-(3-hydroxypiperidin-1-yl)-1H-pyrrolo[2,3-b]pyridin-3-yl]benzonitrile] |
| 188 | Cn1cc(-c2c[nH]c3nccc(-c4cccc(C#N)c4)c23)cn1 [Example 109, 3-[3-(1-methyl-1H-pyrazol-4-yl)-1H-pyrrolo[2,3-b]pyridin-4-yl]benzonitrile] |
| 143 | COc1ccc(-c2ccnc3[nH]cc(-c4cnn(C)c4)c23)c(F)c1 [Example 105, 4-(2-fluoro-4-methoxyphenyl)-3-(1-methyl-1H-pyrazol-4-yl)-1H-pyrrolo[2,3-b]pyridine] |
| 234 | COCc1cccc(-c2ccnc3[nH]cc(-c4cnn(C)c4)c23)c1 [Example 111, 4-[3-(methoxymethyl)phenyl]-3-(1-methyl-1H-pyrazol-4-yl)-1H-pyrrolo[2,3-b]pyridine] |
| 234 | Cc1nnc(-c2cccc(-c3ccnc4[nH]cc(-c5cccc(C#N)c5)c34)c2)o1 [Example 112, 3-{4-[3-(5-methyl-1,3,4-oxadiazol-2-yl)phenyl]-1H-pyrrolo[2,3-b]pyridin-3-yl}benzonitrile] |
| 102 | Cn1cc(-c2c[nH]c3nccc(-c4ccncc4)c23)cn1 [Example 102, 3-(1-methyl-1H-pyrazol-4-yl)-4-(pyridin-4-yl)-1H-pyrrolo[2,3-b]pyridine] |
| 30.6 | C[C@@H]1CN(c2ccnc3[nH]cc(-c4cccc(C#N)c4)c23)CCO1 [Example 76, 3-{4-[(2R)-2-methylmorpholin-4-yl]-1H-pyrrolo[2,3-b]pyridin-3-yl}benzonitrile] |
| 169 | C[C@H]1CN(c2ccnc3[nH]cc(-c4cnn(C)c4)c23)CCO1 [Example 58, 4-[(2S)-2-methylmorpholin-4-yl]-3-(1-methyl-1H-pyrazol-4-yl)-1H-pyrrolo[2,3-b]pyridine] |
| 58.9 | Cn1cc(-c2c[nH]c3nccc(-c4cccc(F)c4F)c23)cn1 [Example 96, 4-(2,3-difluorophenyl)-3-(1-methyl-1H-pyrazol-4-yl)-1H-pyrrolo[2,3-b]pyridine] |
